Several values for one entry are separate records, joined by “and”; a condition that tells them apart may be missing. Identical values can stand only once.
Tests used:
[1] = system: Prostate specific antigen (PSA) secretion in LNCap.FGC cells; assay: cells; details: for PSA concentration: 48 hours
From the text: Prostate specific antigen (PSA) is a protein secreted by the […] cells of prostate. PSA facilitates semen liquification and presents in male serum in minute amount. In the serum of male subjects suffering from prostate cancer, benign prostatic hyperplasia or prostatic infection, the quantity of PSA presented in serum may increase. Therefore, PSA is so far the most valuable marker in screening and diagnosing prostate tumors. PSA also plays an important role in determining a cancer's stage of development and evaluating the effect of treatment. The amounts of PSA were determined by using Prostate Specific Antigen ELISA kit (Cat. No. BQ067T, Bio Quant, USA). […] 50 μl of each of the retrieved culture media and 50 μl of each of the standard PSA of 0, 2, 4, 8, 25, and 50 ng/ml were added to the wells of a 96-well plate, respectively. Then, 50 μl assay buffer was further added to the wells, and the plate was incubated at room temperature in the dark for 30 minutes. The supernatant was removed and the wells were washed three times with 300 μl wash buffer. […] The supernatant was removed and the wells and washed three times with 300 μl wash buffer. […] Within 15 minutes after completion of the previous step, the wells were examined by a ELISA Reader at 450 nm.

[2] = molecular target: androgen receptor (Homo sapiens, UniProt P10275); assay: cell-based; format: cell-based
Sequence of androgen receptor (P10275 whole entry, looked up): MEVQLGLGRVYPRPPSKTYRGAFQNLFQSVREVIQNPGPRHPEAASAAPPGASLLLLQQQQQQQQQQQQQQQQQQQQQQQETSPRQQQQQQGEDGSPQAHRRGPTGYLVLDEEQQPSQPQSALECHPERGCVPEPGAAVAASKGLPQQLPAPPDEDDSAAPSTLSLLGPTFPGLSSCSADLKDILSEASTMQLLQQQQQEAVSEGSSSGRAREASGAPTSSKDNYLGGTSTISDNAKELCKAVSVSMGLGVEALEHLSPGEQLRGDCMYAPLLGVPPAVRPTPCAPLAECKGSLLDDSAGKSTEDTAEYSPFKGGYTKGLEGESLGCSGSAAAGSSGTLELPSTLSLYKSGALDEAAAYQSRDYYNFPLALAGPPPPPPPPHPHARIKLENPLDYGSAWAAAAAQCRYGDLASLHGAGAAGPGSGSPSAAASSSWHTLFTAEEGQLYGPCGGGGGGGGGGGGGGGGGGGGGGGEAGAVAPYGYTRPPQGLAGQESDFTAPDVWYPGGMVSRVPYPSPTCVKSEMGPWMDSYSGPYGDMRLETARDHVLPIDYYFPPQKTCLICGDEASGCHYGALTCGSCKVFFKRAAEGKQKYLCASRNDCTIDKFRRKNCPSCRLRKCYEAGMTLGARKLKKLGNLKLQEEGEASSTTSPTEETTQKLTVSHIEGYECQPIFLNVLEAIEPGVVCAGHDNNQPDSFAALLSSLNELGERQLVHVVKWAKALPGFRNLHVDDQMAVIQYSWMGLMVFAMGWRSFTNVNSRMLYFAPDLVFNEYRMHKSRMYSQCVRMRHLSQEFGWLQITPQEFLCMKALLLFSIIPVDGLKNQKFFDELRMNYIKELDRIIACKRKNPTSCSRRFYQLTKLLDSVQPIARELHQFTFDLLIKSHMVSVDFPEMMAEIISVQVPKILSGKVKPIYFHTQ
Experimental: Human MDA-MB-453 cells were used in this assay. The cells in the exponential phase of growth (cultured in RPMI 1640 medium (Gibco, USA), 10% FBS) were washed off with 1 ml of 0.05% trypsin, centrifuged and collected in a centrifuge tube. 1×10^7 cells were resuspended in 270 μl BES medium (5 mM BES in RPMI 1640 medium) and 8 to 10 μg of pPSA-SEAP2 plasmid (see FIG. 4) were also added to the medium.
25 μl of media were retrieved from each cell of the 96-well plate and heated in a 65° C. water bath for 30 minutes. The media were then treated by Phospha-Light™ assay system (Applied Biosystem) in order to detect the secreted alkaline phosphatase (SEAP) reporter protein. The intensity of luminescence was detected by Victor™ Light luminescence counter to determine the activity of the samples in the modulation of the androgen receptor.
Human MDA-MB-453 cells were used in this assay. The cells in the exponential phase of growth (cultured in RPMI 1640 medium (Gibco), 10% FBS) were washed off with 1 ml of 0.05% trypsin, centrifuged and collected in a centrifuge tube. 1×10^7 cells were resuspended in 270 μl BES medium (5 mM BES in RPMI 1640 medium) and 8 to 10 μg of pPSA-SEAP2 plasmid (see FIG. 4) were also added to the medium.

[3] = system: LNCap.FGC cells; details: MTT, 72 hours, up to 20 μM
Experimental: (§1) The survive rate of cell was determined by the MTT (3-(4,5-dimethyl-2-thiazolyl)-2,5-diphenyl tetrazolium bromide) method.
(§2) The supernatant of the culture was removed.

[4] = system: MRC-5, MCF-7, HepG2, AGS, HeLa, HEK 293 cells; details: MTT, 72 hours, up to 20 μM
Experimental: as §1, §2

Work on `C[C@]12CCC(=O)C[C@@H]1CC[C@@H]1[C@@H]2CC[C@]2(C)[C@@H](O)CC[C@@H]12` [DHT, 5α-dihydrotestosterone, reference compound] yielded a PSA concentration ([1]; DHT 5 nM alone) of 12.61 ng/mL.

`C/C=C/C1=CC2=C(CO1)C(=O)[C@]1(C)OC(=O)[C@H](C(=O)CCCCCCC)[C@H]1C2` [ankaflavin] showed an inhibition at 26 µM ([2]; MDA-MB-453, read-out: inhibition of the reporter activity) of 41%.

In the case of `C/C=C/C1=CC2=C(CO1)C(=O)[C@]1(C)OC(=O)[C@H](C(=O)CCCCC)[C@H]1C2` [monascin], the “inhibition of the reporter activity” value [2] is reported as 55%.

With `C/C=C/C1=CC2=C(CO1)C(=O)[C@]1(C)OC(=O)[C@H]([C@@H](O)CCCCC)[C@H]1C2` [monascuspiloin, (3S,3aR,9aR)-3a,4-dihydro-3-((S)-1-hydroxyhexyl)-9a-methyl-6-((E)-prop-1-enyl)-3H-furo [3,2-g]isochromene-2,9(8H,9aH)-dione] the “cytotoxic effect on LNCap.FGC” value [3] was “does not have a significant cytotoxic effect”, the “cytotoxic effect on the other 6 non-human-prostate-cancer cell lines” value [4] was “does not have a significant cytotoxic effect” and the IC50 ([2]; read-out: IC50 for inhibition of the activation of the androgen receptor) was ~12 µM and 12 µM. The PSA concentration ([1]; DHT 5 nM + Monascuspiloin 5 μM) was 10.27 ng/mL, the PSA concentration ([1]; DHT 5 nM + Monascuspiloin 10 μM) was 9.71 ng/mL and the PSA concentration ([1]; DHT 5 nM + Monascuspiloin 25 μM) was 8.77 ng/mL. It also gave an inhibition at 20 µM ([1]; Homo sapiens, read-out: inhibition of the production of PSA induced by DHT) of 43%.

Source: patent US8957057B2 (priority 2009, dated 2015)
